Active and inactive are the calls of the source. The calls are words filed in the database; no cut-off is given here.
Tests used:
[1] = Drug uptake in live human HeLa cells assessed as drug penetration by measuring increase in fluorescence intensity at 5 uM incubated for 2 hrs by PKAc antibody immunostaining based Western blot analysis; type: ADME, cell-based
[2] = molecular target: T1, cAMP-dependent protein kinase catalytic subunit alpha (Homo sapiens, UniProt P17612); assay: Binding affinity to recombinant human PKAC-alpha in human HeLa cells assessed as increase in intensity of fluorescent labeled bands at 5 uM incubated for 2 hrs in presence of forskolin by Western blot analysis; type: cell-based
[3] = molecular target: T1, cAMP-dependent protein kinase catalytic subunit alpha; assay: Binding affinity to recombinant human spiked PKAC-alpha in human HeLa cells assessed as covalent compound-protein adduct formation by measuring multiple fluorescent band formation at 0.15 to 1 uM incubated for 1 hr by 5-TAMRA dye based Western blot analysis; type: cell-based; settings: dose 0.15-1 µM
[4] = Drug uptake in human HeLa cell lysates assessed as drug penetration by measuring increase in fluorescence intensity at 1.5 uM incubated for 2 hrs by PKAc antibody immunostaining based Western blot analysis; type: ADME, subcellular
[5] = Drug uptake in live human HeLa cells assessed as increase in fluorescence intensity at 1 to 5 uM by microplate reader analysis; type: ADME, cell-based; settings: TDE = time-dependent effect, dose lower 1 µM, time lower 15 min, dose upper 5 µM, time upper 120 min
[6] = Drug uptake in cytoplasm of human HeLa cells at 1 to 5 uM incubated for 15 mins to 2 hrs by live cell imaging analysis; type: ADME, subcellular; settings: dose lower 1 µM, time lower 15 min, dose upper 5 µM, time upper 120 min
[7] = Drug uptake in endosome of human HeLa cells assessed as punctate perinuclear pattern formation at 1 to 5 uM incubated for 15 mins to 2 hrs by live cell imaging analysis; type: ADME, subcellular; settings: dose lower 1 µM, time lower 15 min, dose upper 5 µM, time upper 120 min
[8] = Drug uptake in endosome of human HeLa cells assessed as punctate perinuclear pattern formation at 1 to 5 uM incubated for 15 mins to 2 hrs in presence of forskolin by live cell imaging analysis; type: ADME, subcellular; settings: dose lower 1 µM, time lower 15 min, dose upper 5 µM, time upper 120 min
[9] = Drug uptake in cell membrane of human HeLa cells assessed as observation of cell plasma membrane protrusions at 1 to 5 uM incubated for 15 mins to 2 hrs by live cell imaging analysis; type: ADME, cell membranes; settings: dose lower 1 µM, time lower 15 min, dose upper 5 µM, time upper 120 min
[10] = Drug uptake in cell membrane of human HeLa cells assessed as observation of cell plasma membrane protrusions at 1 to 5 uM incubated for 15 mins to 2 hrs in presence of forskolin by live cell imaging analysis; type: ADME, cell membranes; settings: dose lower 1 µM, time lower 15 min, dose upper 5 µM, time upper 120 min
[11] = Drug uptake in live human HeLa cells assessed as drug internalization at 5 uM incubated for 15 mins to 2 hrs in presence of forskolin by live cell imaging analysis; type: ADME, cell-based; settings: time 15-120 min
[12] = Drug uptake in cytoplasm of human HeLa cells at 1 to 5 uM incubated for 15 mins to 2 hrs in presence of forskolin by live cell imaging analysis; type: ADME, subcellular; settings: dose lower 1 µM, time lower 15 min, dose upper 5 µM, time upper 120 min
[13] = Drug uptake in live human HeLa cells assessed as drug internalization at 5 uM incubated for 15 mins to 2 hrs in absence of forskolin by live cell imaging analysis; type: ADME, cell-based; settings: time 15-120 min

Drug uptake [1] | Activity [2] | Activity [3] | Drug uptake [4] | Drug uptake [5] | Drug uptake [6] | Drug uptake [7] | Drug uptake [8] | Drug uptake [9] | Drug uptake [10] | Drug uptake [11] | Drug uptake [12] | Drug uptake [13] | SMILES
Active | Active | Active | Active | – | – | – | – | – | – | – | – | – | CC[C@H](C)[C@H](NC(=O)CCC(=O)N[C@@H](CCCCNC(=O)[C@@H](CCCNC(=N)N)NC(=O)CCCCCCCC(=O)N1CCN(c2ncnc3[nH]ccc23)CC1)C(=O)N[C@H](CCCNC(=N)N)C(=O)N[C@H](CCCNC(=N)N)C(=O)N[C@H](CCCCNC(=O)CCCCC[N+]1=C(/C=C/C=C/C=C2\N(C)c3ccc4ccccc4c3C2(C)C)C(C)(C)c2c1ccc1ccccc21)C(N)=O)C(=O)NCC(=O)CF
– | – | – | – | Tde | Active | Active | Active | Active | Active | Active | Active | Active | CC[C@H](C)[C@H](NC(=O)CCC(=O)N[C@@H](CCCCNC(=O)[C@@H](CCCNC(=N)N)NC(=O)CCCCCCCC(=O)N1CCN(c2ncnc3[nH]ccc23)CC1)C(=O)N[C@H](CCCNC(=N)N)C(=O)N[C@H](CCCNC(=N)N)C(=O)N[C@H](CCCCNC(=O)CCCCC[N+]1=C(/C=C/C=C/C=C2\N(C)c3ccccc3C2(C)C)C(C)(C)c2ccccc21)C(N)=O)C(=O)NCC(=O)CF

Reference: ChEMBL document CHEMBL5137094, “Construction of Covalent Bisubstrate Inhibitor of Protein Kinase Reacting with Cysteine Residue at Substrate-Binding Site” (J Med Chem, 2022)
